Measured values taken from US10604554B2, “Double-acylated GLP-1 derivatives” (Novo Nordisk A/S, priority 2012, dated 2020).

What was measured:
human GLP-1 receptor [1] = biological target: T1, human GLP-1 receptor (Homo sapiens, UniProt P43220); assay: In vitro potency (CRE luciferase; whole cells); assay type: cell-based; design: EC50/pM (ratio 1% HSA/0% HSA): unit not given here; conditions: for EC50: BHK cells
T1 construct: expressed in transfected cells; host or cells: BHK cells, clone FCW467-12A/KZ10-1 (parent line BHKTS13), further transfected with CRE luciferase
Procedure: The purpose of this example is to test the activity, or potency, of the GLP-1 derivatives in vitro. The in vitro potency is the measure of human GLP-1 receptor activation in a whole cell assay.
In vitro potency was determined by measuring the response of human GLP-1 receptor in a reporter gene assay. The assay was performed in a stably transfected BHK cell line that expresses the human GLP-1 receptor and contains the DNA for the cAMP response element (CRE) coupled to a promoter and the gene for firefly luciferase (CRE luciferase). When the human GLP-1 receptor was activated it results in the production of cAMP, which in turn results in the luciferase protein being expressed. When assay incubation was completed the luciferase substrate (luciferin) was added and the enzyme converts luciferin to oxyluciferin and produces bioluminescence. The luminescence was measured and was the readout for the assay.
An increase of the in vitro potency, EC50 value, in the presence of serum albumin indicates an affinity to serum albumin and represents a method to predict a protracted pharmacokinetic profile of the test substance in animal models.
The cells were cultured at 5% CO2 in cell culture medium. They were aliquoted and stored in liquid nitrogen. Before each assay an aliquot was taken up and washed twice in PBS before being suspended at the desired concentration in the assay specific buffer.
The following chemicals were used in the assay: Pluronic F-68 (10%) (Gibco 2404), human serum albumin (HSA) (Sigma A9511), ovalbumin (Sigma A5503), DMEM w/o phenol red (Gibco 11880-028), 1 M Hepes (Gibco 15630), Glutamax 100× (Gibco 35050) and steadylite plus (PerkinElmer 6016757).
1) Cell stocks were thawed in a 37° C. water bath.
2) Cells were washed three times in PBS.
3) The cells were counted and adjusted to 5×10^3 cells/50 μl (1×10^5 cells/ml) in assay medium. A 50 μl aliquot of cells was transferred to each well in the assay plate.
4) Stocks of the test compounds and reference compounds were diluted to a concentration of 0.2 μM in 0% assay buffer for the 0% HSA CRE luciferase assay and 1% assay buffer for the HSA CRE luciferase assay. […] 5) A 50 μl aliquot of compound or blank was transferred in triplicate from the dilution plate to the assay plate. […] 7) The assay plate was removed from the incubator and allowed to stand at room temperature for 15 min. 8) A 100 μl aliquot of steadylite plus reagent was added to each well of the assay plate (reagent was light sensitive). 9) Each assay plate was covered with aluminum foil to protect it from light and shaken for 30 min at room temperature. 10) Each assay plate was read in a Packard TopCount NXT instrument. Calculations and Results
The data from the TopCount instrument were transferred to GraphPad Prism software. The software averages the values for each replicate and performs a non-linear regression.

human GLP-1 receptor [2] = biological target: T1, human GLP-1 receptor; assay: GLP-1 receptor binding (SPA, displacement of 125I-GLP-1)
Procedure: The purpose of this experiment is to investigate the binding to the GLP-1 receptor of the GLP-1 derivatives, and how the binding is potentially influenced by the presence of albumin. This is done in an in vitro experiment as described below.
In order to test the binding of the derivatives to albumin, the assay was performed with a low concentration of albumin (0.001%—corresponding to the residual amount thereof in the tracer), as well as with a high concentration of albumin (2.0% added). A shift in the binding affinity, IC50, is an indication that the peptide in question binds to albumin, and thereby a prediction of a potential protracted pharmacokinetic profile of the peptide in question in animal models.
Species (in vitro): Hamster
Biological End Point: Receptor Binding
A stable transfected cell line and a high expressing clone were selected for screening. The cells were grown at 5% CO2 in DMEM, 10% FCS, 1% Pen/Strep (Penicillin/Streptomycin) and 1.0 mg/ml of the selection marker G418.
The cells (approx. 80% confluence) were washed twice in PBS and harvested with Versene (aqueous solution of the tetrasodium salt of ethylenediaminetetraacetic acid), following which they were separated by centrifugation at 1000 rpm for 5 min. The cells/cell pellet must be kept on ice to the extent possible in the subsequent steps. The cell pellet was homogenised with Ultrathurrax for 20-30 seconds in a suitable amount of Buffer 1 (depending on the amount of cells, but e.g. 10 ml). The homogenate was centrifuged at 20000 rpm for 15 minutes. The pellet was resuspended (homogenised) in 10 ml Buffer 2 and re-centrifuged. This step was repeated once more. The resulting pellet was resuspended in Buffer 2, and the protein concentration was determined. The membranes were stored at minus 80° C.
Buffer 1:20 mM Na-HEPES+10 mM EDTA, pH 7.4
Buffer 2:20 mM Na-HEPES+0.1 mM EDTA, pH 7.4
Test compounds, membranes, SPA-particles and [^125I]-GLP-1(7-36)NH2 were diluted in assay buffer. 50 ul (micro liter) HSA (“high albumin” experiment containing 2% HSA), or buffer (“low albumin” experiment containing 0.001% HSA) was added to Optiplate, and 25 ul of test compounds were added. 5-10 ug membrane protein/sample was added (50 ul) corresponding to 0.1-0.2 mg protein/ml (to be preferably optimised for each membrane preparation). SPA-particles (Wheatgerm agglutinin SPA beads, Perkin Elmer, # RPNQ0001) were added in an amount of 0.5 mg/well (50 ul). The incubation was started with [^125I]-GLP-1]-(7-36)NH2 (final concentration 0.06 nM corresponding to 49.880 DPM, 25 ul). The plates were sealed with PlateSealer and incubated for 120 minutes at 30° C. while shaking. The plates were centrifuged (1500 rpm, 10 min) and counted in Topcounter.

[3] = In vitro potency (CRE luciferase) EC50 (1% HSA), 1% HSA
[4] = Receptor binding affinity IC50 (high HSA), 2.0% HSA (high albumin)

T1 sequence (P43220 24-463): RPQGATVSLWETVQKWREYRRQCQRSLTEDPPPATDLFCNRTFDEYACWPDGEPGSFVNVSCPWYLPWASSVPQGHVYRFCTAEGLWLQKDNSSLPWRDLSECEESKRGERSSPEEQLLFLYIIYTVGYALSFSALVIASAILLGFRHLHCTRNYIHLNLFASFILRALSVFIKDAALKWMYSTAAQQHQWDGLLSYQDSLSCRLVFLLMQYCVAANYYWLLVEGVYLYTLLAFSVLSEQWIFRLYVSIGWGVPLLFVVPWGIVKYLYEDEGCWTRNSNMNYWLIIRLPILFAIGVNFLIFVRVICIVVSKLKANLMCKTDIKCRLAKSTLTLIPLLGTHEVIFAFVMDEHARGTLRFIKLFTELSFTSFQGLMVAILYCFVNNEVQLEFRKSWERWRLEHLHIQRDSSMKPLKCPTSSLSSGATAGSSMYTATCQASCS

SMILES	EC50 (human GLP-1 receptor [1]; [3]) [nM]	EC50/pM (ratio 1% HSA/0% HSA) (human GLP-1 receptor [1]; ratio of EC50 at 1% HSA to EC50 at 0% HSA)	IC50 (human GLP-1 receptor [2]; [4]) [nM]	IC50 (human GLP-1 receptor [2]; Receptor binding affinity IC50 (low HSA), 0.001% HSA (low albumin)) [nM]	EC50 (human GLP-1 receptor [1]; In vitro potency (CRE luciferase) EC50 (0% HSA), 0% HSA) [nM]
CC[C@H](C)[C@H](NC(=O)[C@H](Cc1ccccc1)NC(=O)[C@H](CCC(=O)O)NC(=O)[C@H](CCCCNC(=O)[C@@H](N)CCCCNC(=O)[C@@H](N)CCCCNC(=O)CC[C@H](NC(=O)CCCCCCCCCCCCC(=O)O)C(=O)O)NC(=O)[C@H](C)NC(=O)[C@H](C)NC(=O)[C@H](CCC(N)=O)NC(=O)CNC(=O)[C@H](CCC(=O)O)NC(=O)[C@H](CC(C)C)NC(=O)[C@H](Cc1ccc(O)cc1)NC(=O)[C@H](CO)NC(=O)[C@H](CO)NC(=O)[C@@H](NC(=O)[C@H](CC(=O)O)NC(=O)[C@H](CO)NC(=O)[C@@H](NC(=O)[C@H](Cc1ccccc1)NC(=O)[C@@H](NC(=O)CNC(=O)[C@H](CCC(=O)O)NC(=O)C(C)(C)NC(=O)[C@@H](N)Cc1c[nH]cn1)[C@@H](C)O)[C@@H](C)O)C(C)C)C(=O)N[C@@H](C)C(=O)N[C@@H](Cc1c[nH]c2ccccc12)C(=O)N[C@@H](CC(C)C)C(=O)N[C@H](C(=O)N[C@@H](Cc1c[nH]cn1)C(=O)NCC(=O)N[C@@H](CCCNC(=N)N)C(=O)N[C@@H](CCCCNC(=O)[C@@H](N)CCCCNC(=O)[C@@H](N)CCCCNC(=O)CC[C@H](NC(=O)CCCCCCCCCCCCC(=O)O)C(=O)O)C(=O)O)C(C)C [Example 3, N^ε26-[(2S)-2-amino-6-[[(2S)-2-amino-6-[[(4S)-4-carboxy-4-(13-carboxytridecanoylamino)butanoyl]amino]hexanoyl]amino]hexanoyl], N^ε37-[(2S)-2-amino-6-[[(2S)-2-amino-6-[[(4S)-4-carboxy-4-(13-carboxytridecanoylamino)butanoyl]amino]hexanoyl]amino]hexanoyl]-[Aib^8,His^34,Lys^37]-GLP-1-(7-37)-peptide]	0.08	10.3	–	–	–
CC[C@H](C)[C@H](NC(=O)[C@H](Cc1ccccc1)NC(=O)[C@H](CCC(=O)O)NC(=O)[C@H](CCCCNC(=O)[C@@H](N)CCCCNC(=O)CC[C@H](NC(=O)CC[C@H](NC(=O)CC[C@H](NC(=O)CCCCCCCCCOc1ccc(C(=O)O)cc1)C(=O)O)C(=O)O)C(=O)O)NC(=O)[C@H](C)NC(=O)[C@H](C)NC(=O)[C@H](CCC(N)=O)NC(=O)CNC(=O)[C@H](CCC(=O)O)NC(=O)[C@H](CC(C)C)NC(=O)[C@H](Cc1ccc(O)cc1)NC(=O)[C@H](CO)NC(=O)[C@H](CO)NC(=O)[C@@H](NC(=O)[C@H](CC(=O)O)NC(=O)[C@H](CO)NC(=O)[C@@H](NC(=O)[C@H](Cc1ccccc1)NC(=O)[C@@H](NC(=O)CNC(=O)[C@H](CCC(=O)O)NC(=O)C(C)(C)NC(=O)[C@@H](N)Cc1c[nH]cn1)[C@@H](C)O)[C@@H](C)O)C(C)C)C(=O)N[C@@H](C)C(=O)N[C@@H](Cc1c[nH]c2ccccc12)C(=O)N[C@@H](CC(C)C)C(=O)N[C@H](C(=O)N[C@@H](CCCNC(=N)N)C(=O)NCC(=O)N[C@@H](CCCNC(=N)N)C(=O)N[C@@H](CCCCNC(=O)[C@@H](N)CCCCNC(=O)CC[C@H](NC(=O)CC[C@H](NC(=O)CC[C@H](NC(=O)CCCCCCCCCOc1ccc(C(=O)O)cc1)C(=O)O)C(=O)O)C(=O)O)C(=O)O)C(C)C [Example 8, N^ε26-[(2S)-2-amino-6-[[(4S)-4-carboxy-4-[[(4S)-4-carboxy-4-[[(4S)-4-carboxy-4-[10-(4-carboxyphenoxy)decanoylamino]butanoyl]amino]butanoyl]amino]butanoyl]amino]hexanoyl], N^ε37-[(2S)-2-amino-6-[[(4S)-4-carboxy-4-[[(4S)-4-carboxy-4-[[(4S)-4-carboxy-4-[10-(4-carboxyphenoxy)decanoylamino]butanoyl]amino]butanoyl]amino]butanoyl]amino]hexanoyl]-[Aib^8,Arg^34,Lys^37]-GLP-1-(7-37)-peptide]	0.045	–	269	0.68	0.0026
CC[C@H](C)[C@H](NC(=O)[C@H](Cc1ccccc1)NC(=O)[C@H](CCC(=O)O)NC(=O)[C@H](CCCCNC(=O)[C@@H](N)CCCCNC(=O)[C@H](CO)NC(=O)CNC(=O)[C@H](CO)NC(=O)CC[C@H](NC(=O)CCCCCCCCCCCOc1ccc(C(=O)O)cc1)C(=O)O)NC(=O)[C@H](C)NC(=O)[C@H](C)NC(=O)[C@H](CCC(N)=O)NC(=O)CNC(=O)[C@H](CCC(=O)O)NC(=O)[C@H](CC(C)C)NC(=O)[C@H](Cc1ccc(O)cc1)NC(=O)[C@H](CO)NC(=O)[C@H](CO)NC(=O)[C@@H](NC(=O)[C@H](CC(=O)O)NC(=O)[C@H](CO)NC(=O)[C@@H](NC(=O)[C@H](Cc1ccccc1)NC(=O)[C@@H](NC(=O)CNC(=O)[C@H](CCC(=O)O)NC(=O)C(C)(C)NC(=O)CCc1c[nH]cn1)[C@@H](C)O)[C@@H](C)O)C(C)C)C(=O)N[C@@H](C)C(=O)N[C@@H](Cc1c[nH]c2ccccc12)C(=O)N[C@@H](CC(C)C)C(=O)N[C@H](C(=O)N[C@@H](CCCNC(=N)N)C(=O)NCC(=O)N[C@@H](CCCNC(=N)N)C(=O)N[C@@H](CCCCNC(=O)[C@@H](N)CCCCNC(=O)[C@H](CO)NC(=O)CNC(=O)[C@H](CO)NC(=O)CC[C@H](NC(=O)CCCCCCCCCCCOc1ccc(C(=O)O)cc1)C(=O)O)C(=O)O)C(C)C [Example 25]	0.124	–	274	–	–
